One assay concerns ACC levels in shoots. Nature of the assay: Quantification of ACC in shoots by CE-MS. It is filed as in vivo, Arabidopsis thaliana. As for the experimental part:
To find out whether differential transcripts reflect changes in hormone levels, we determined concentrations of the ethylene precursor ACC in complete shoots of 9-day-old plants transferred to mannitol. Already 1 h after stress onset, ACC levels were 30% higher in stressed than in control samples, although this was not significant, and by 10 h, the increase was more than 2-fold and significant (FIG. 7B). At the time of analysis, the shoot samples were mainly composed of expanding cells, reflecting the overall importance of ethylene signaling for the response of growing tissues to stress.
Freeze-dried samples were dissolved in 500 μl of methanol, including two internal standard compounds (4 μM methionine sulfone used for compensation of the peak area after capillary electrophoresis-mass spectrometry (CE-MS) analysis and 0.2 μM D4-ACC for quantification of ACC. After addition of 500 μl of chloroform and 200 μl of water, the mixture was vortexed for 3 min and centrifuged at 20,400 g for 3 min at 4° C. The upper layer was evaporated for 30 min at 45° C. by a centrifugal concentrator and then separated into two layers. The upper layer (100-200 μl) was centrifugally filtered through a Millipore 5-kD cutoff filter at 9,100 g for 90 min. […] The final solution (10 μL) was used to quantify the contents of ACC by cation analysis using CE-MS. […]

In assay [1] the test system is proliferating leaf primordia transcriptome. Nature of the assay: ATH1 whole-genome transcript profiling of proliferating leaf primordia. It is filed as in vivo, Arabidopsis thaliana. From the text: To obtain a better understanding of the molecular mechanisms inhibiting cell division during stress, we subjected proliferating leaf primordia to whole-genome transcript profiling. […] Selected microarray data could be validated with a nCounter platform containing probes for 100 genes involved in growth, stress, and hormonal regulation. Differential transcripts were used to construct Venn diagrams and were subjected to k-means clustering. […] Subsequently, the differential transcripts were examined with PageMan to calculate the functional overrepresentation of MapMan categories (Thimm et al., 2004; Usadel et al., 2006) and were compared to selected publicly available microarray experiments (see “Materials and Methods”). To explain the reduced cell proliferation rates, cell cycle genes were among the prime suspects. […] Strikingly, the magnitude of change for all of the above-mentioned cell cycle genes was similar (approximately 30%) and occurred only at 24 h (FIG. 6A). Besides the cell cycle-related transcripts, we were particularly interested in genes related to hormonal signaling.
Leaf 3 was harvested from plants at 1.5, 3, 12, and 24 h. Briefly, whole seedlings were harvested in an excess of RNAlater solution (Ambion) and, after overnight storage at 4° C., dissected under a binocular microscope on a cooling plate with precision microscissors. Dissected leaves were transferred to a new tube, frozen in liquid nitrogen, and ground with a Retsch machine and 3-mm metal balls. Samples were obtained from three independent biological experiments and from multiple plates within the experiment.
RNA was extracted with TriZol (Invitrogen) according to the manufacturer's instructions with 4 μg of glycogen as carrier during the precipitation step. RNA samples were subjected to DNA digestion with RNase-free DNase I (Roche) and subsequently cleaned up with the RNeasy Mini Kit (Qiagen).
RNA samples were hybridized to single Affymetrix ATH1 Genome arrays at the VIB Microarray Facility (Leuven, Belgium). Expression data were processed with Robust Multichip Average (RMA) (background correction, normalization, and summarization) as implemented in BioConductor (Irizarry et al., 2003a, 2003b; Gentleman et al., 2004). An alternative cdf (“tinesath1cdf”) was used, in which each probe is uniquely assigned to one transcript (Casneuf et al., 2007) (http://www.bioconductor.org/packages/release/data/experiment/html/tinesath1cdf.html). The BioConductor package Limma was used to identify differentially expressed genes (Smyth, 2004). For comparisons of interest, moderated t statistics were calculated using the eBayes function and P values were corrected for multiple testing for each contrast separately using topTable. False-discovery rate (FDR)-corrected p-value<0.05 was used as a cut-off (Benjamini and Hochberg, 1995).

[2] abbreviates: 1.5 h after transfer to 25 mM mannitol.
The mark [3] stands for this setting: 3 h after transfer to 25 mM mannitol.
[4] abbreviates: 12 h after transfer to 25 mM mannitol.
Setting [5] is: 24 h after transfer to 25 mM mannitol.

The structures appear in SMILES notation.

These results are taken from patent US20140130208A1, “METHODS AND MEANS TO PRODUCE ABIOTIC STRESS TOLERANT PLANTS” (VIB VZW, priority 2011, published 2014).

Consider `OC[C@@H](O)[C@@H](O)[C@H](O)[C@H](O)CO` [mannitol], for which the “increase of ACC levels in stressed versus control shoots” value with ACC levels in shoots (1 h after stress onset, not significant) was 30%; with ACC levels in shoots (10 h after stress onset, significant), “more than 2 fold”. The “number of down-regulated transcripts” value worked out at 31 in assay [1] (setting [2]), 145 in assay [1] (setting [3]), 84 in assay [1] (setting [4]) and 622 in assay [1] (setting [5]). Also, the “number of up-regulated transcripts” value in assay [1] (setting [2]) is listed as 27; in assay [1] (setting [3]), 189; in assay [1] (setting [4]), 351; in assay [1] (setting [5]), 886. The “magnitude of change (down-regulation) of cell cycle genes” value in assay [1] (24 h after stress onset) was “approximately 30%”.
